Results: PubChem BioAssay (NCI)
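Compound exposure: 48 hours, 5 concentrations, 96-well plates. GI50: concentration for 50% inhibition of growth. The concentration for full growth arrest is given as TGI.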

Tests used:
Test in all cases: growth of human tumour cells (NCI), 48 h
UO-31 renal = system: UO-31 renal
SF-268 CNS = system: SF-268 CNS
HCT-116 colon = system: HCT-116 colon
RXF 393 renal = system: RXF 393 renal
UACC-257 melanoma = system: UACC-257 melanoma
NCI-H23 lung = system: NCI-H23 lung
OVCAR-3 ovarian = system: OVCAR-3 ovarian
NCI-H460 lung = system: NCI-H460 lung
A549 NSCLC = system: A549 NSCLC
OVCAR-8 ovarian = system: OVCAR-8 ovarian
NCI/ADR-RES ovarian = system: NCI/ADR-RES ovarian
HCC-2998 colon = system: HCC-2998 colon
HCT-15 colon = system: HCT-15 colon
DU-145 prostate = system: DU-145 prostate
UACC-62 melanoma = system: UACC-62 melanoma
HOP-92 NSCLC = system: HOP-92 NSCLC
COLO 205 colon = system: COLO 205 colon
SK-OV-3 ovarian = system: SK-OV-3 ovarian
ACHN renal = system: ACHN renal
BT-549 breast = system: BT-549 breast
U251 CNS = system: U251 CNS
SW-620 colon = system: SW-620 colon
NCI-H522 lung = system: NCI-H522 lung
M14 melanoma = system: M14 melanoma
SNB-75 CNS = system: SNB-75 CNS
SR leukemia = system: SR leukemia
SNB-19 CNS = system: SNB-19 CNS
MOLT-4 leukemia = system: MOLT-4 leukemia
MDA-MB-231 breast = system: MDA-MB-231 breast
HS 578T breast = system: HS 578T breast
A498 renal = system: A498 renal
SK-MEL-28 melanoma = system: SK-MEL-28 melanoma
CAKI-1 renal = system: CAKI-1 renal
SN12C renal = system: SN12C renal
TK-10 renal = system: TK-10 renal
K-562 leukemia = system: K-562 leukemia
CCRF-CEM leukemia = system: CCRF-CEM leukemia
MDA-MB-435 = system: MDA-MB-435
SK-MEL-5 melanoma = system: SK-MEL-5 melanoma
HOP-62 NSCLC = system: HOP-62 NSCLC
SF-295 CNS = system: SF-295 CNS
PC-3 prostate = system: PC-3 prostate
RPMI-8226 leukemia = system: RPMI-8226 leukemia
OVCAR-5 ovarian = system: OVCAR-5 ovarian
NCI-H226 lung = system: NCI-H226 lung
SF-539 CNS = system: SF-539 CNS
786-0 renal = system: 786-0 renal
MALME-3M melanoma = system: MALME-3M melanoma
LOX IMVI melanoma = system: LOX IMVI melanoma
SK-MEL-2 melanoma = system: SK-MEL-2 melanoma
EKVX NSCLC = system: EKVX NSCLC
IGROV1 ovarian = system: IGROV1 ovarian
T-47D breast = system: T-47D breast
HL-60(TB) leukemia = system: HL-60(TB) leukemia
HT29 colon = system: HT29 colon
KM12 colon = system: KM12 colon
OVCAR-4 ovarian = system: OVCAR-4 ovarian
MCF7 breast = system: MCF7 breast

Molecule Cc1ccc2sc3c(c2c1)OC(N)=C(C#N)C3c1cccc(F)c1 (stereo unspecified) has a GI50 (UO-31 renal) of 375 nM, a TGI (UO-31 renal) of 11100 nM and a GI50 (SF-268 CNS) of 822 nM. It also gave a TGI (SF-268 CNS) of 24600 nM, a GI50 (HCT-116 colon) of 102 nM and a TGI (HCT-116 colon) of 1950 nM. For the same molecule, the GI50 (RXF 393 renal) was 36.5 nM, the TGI (RXF 393 renal) was 189 nM and the GI50 (UACC-257 melanoma) was 162 nM. The TGI (UACC-257 melanoma) was 23300 nM, the GI50 (NCI-H23 lung) was 205 nM and the TGI (NCI-H23 lung) was 2560 nM. The GI50 (OVCAR-3 ovarian) was 134 nM, the TGI (OVCAR-3 ovarian) was 4100 nM and the GI50 (NCI-H460 lung) was 52.1 nM. The TGI (NCI-H460 lung) was 1370 nM, the GI50 (A549 NSCLC) was 217 nM and the TGI (A549 NSCLC) was 11600 nM. The GI50 (OVCAR-8 ovarian) was 257 nM, the TGI (OVCAR-8 ovarian) was 1250 nM and the GI50 (NCI/ADR-RES ovarian) was 57.4 nM. The TGI (NCI/ADR-RES ovarian) was 1760 nM, the GI50 (HCC-2998 colon) was 264 nM and the TGI (HCC-2998 colon) was 1410 nM. For the same molecule, the GI50 (HCT-15 colon) was 75.5 nM, the TGI (HCT-15 colon) was 6400 nM and the GI50 (DU-145 prostate) was 541 nM. For the same molecule, the TGI (DU-145 prostate) was over 33200 nM, the GI50 (UACC-62 melanoma) was 53.5 nM and the TGI (UACC-62 melanoma) was 12500 nM. For the same molecule, the GI50 (HOP-92 NSCLC) was 4320 nM, the TGI (HOP-92 NSCLC) was 20500 nM and the GI50 (COLO 205 colon) was 276 nM. The TGI (COLO 205 colon) was 779 nM, the GI50 (SK-OV-3 ovarian) was 324 nM and the TGI (SK-OV-3 ovarian) was 10700 nM. The GI50 (ACHN renal) was 450 nM, the TGI (ACHN renal) was 10700 nM and the GI50 (BT-549 breast) was 137 nM. It also gave a TGI (BT-549 breast) of 1170 nM, a GI50 (U251 CNS) of 151 nM and a TGI (U251 CNS) of 1950 nM. It also gave a GI50 (SW-620 colon) of 111 nM, a TGI (SW-620 colon) of 13400 nM and a GI50 (NCI-H522 lung) of 22.8 nM. It also gave a TGI (NCI-H522 lung) of 94.6 nM, a GI50 (M14 melanoma) of 137 nM and a TGI (M14 melanoma) of 1900 nM. For the same molecule, the GI50 (SNB-75 CNS) was 158 nM, the TGI (SNB-75 CNS) was 1360 nM and the GI50 (SR leukemia) was 90 nM. The TGI (SR leukemia) was 30800 nM, the GI50 (SNB-19 CNS) was 339 nM and the TGI (SNB-19 CNS) was 13000 nM. It also gave a GI50 (MOLT-4 leukemia) of 414 nM, a TGI (MOLT-4 leukemia) of 33600 nM and a GI50 (MDA-MB-231 breast) of 457 nM. For the same molecule, the TGI (MDA-MB-231 breast) was 3170 nM, the GI50 (HS 578T breast) was 194 nM and the TGI (HS 578T breast) was 8970 nM. It also gave a GI50 (A498 renal) of 3350 nM, a TGI (A498 renal) of 17200 nM and a GI50 (SK-MEL-28 melanoma) of 825 nM. For the same molecule, the TGI (SK-MEL-28 melanoma) was 20100 nM, the GI50 (CAKI-1 renal) was 183 nM and the TGI (CAKI-1 renal) was 11500 nM. For the same molecule, the GI50 (SN12C renal) was 411 nM, the TGI (SN12C renal) was 6170 nM and the GI50 (TK-10 renal) was 1580 nM. It also gave a TGI (TK-10 renal) of 13500 nM, a GI50 (K-562 leukemia) of 42.6 nM and a TGI (K-562 leukemia) of over 40800 nM. For the same molecule, the GI50 (CCRF-CEM leukemia) was 312 nM, the TGI (CCRF-CEM leukemia) was 24700 nM and the GI50 (MDA-MB-435) was 24.1 nM. It also gave a TGI (MDA-MB-435) of 62 nM, a GI50 (SK-MEL-5 melanoma) of 391 nM and a TGI (SK-MEL-5 melanoma) of 2350 nM. It also gave a GI50 (HOP-62 NSCLC) of 265 nM, a TGI (HOP-62 NSCLC) of 3970 nM and a GI50 (SF-295 CNS) of 79.9 nM. For the same molecule, the TGI (SF-295 CNS) was 770 nM, the GI50 (PC-3 prostate) was 305 nM and the TGI (PC-3 prostate) was 14800 nM. For the same molecule, the GI50 (RPMI-8226 leukemia) was 324 nM, the TGI (RPMI-8226 leukemia) was 9770 nM and the GI50 (OVCAR-5 ovarian) was 370 nM. The TGI (OVCAR-5 ovarian) was 7580 nM, the GI50 (NCI-H226 lung) was 282 nM and the TGI (NCI-H226 lung) was 2810 nM. It also gave a GI50 (SF-539 CNS) of 155 nM, a TGI (SF-539 CNS) of 547 nM and a GI50 (786-0 renal) of 458 nM. It also gave a TGI (786-0 renal) of 6490 nM, a GI50 (MALME-3M melanoma) of 99.2 nM and a TGI (MALME-3M melanoma) of 11200 nM. It also gave a GI50 (LOX IMVI melanoma) of 160 nM, a TGI (LOX IMVI melanoma) of 2450 nM and a GI50 (SK-MEL-2 melanoma) of 308 nM. The TGI (SK-MEL-2 melanoma) was 18700 nM, the GI50 (EKVX NSCLC) was 573 nM and the TGI (EKVX NSCLC) was 18900 nM. For the same molecule, the GI50 (IGROV1 ovarian) was 318 nM, the TGI (IGROV1 ovarian) was 12700 nM and the GI50 (T-47D breast) was 35.1 nM. The TGI (T-47D breast) was 26900 nM, the GI50 (HL-60(TB) leukemia) was 235 nM and the TGI (HL-60(TB) leukemia) was 671 nM. It also gave a GI50 (HT29 colon) of 250 nM, a TGI (HT29 colon) of 878 nM and a GI50 (KM12 colon) of 309 nM. It also gave a TGI (KM12 colon) of 16900 nM, a GI50 (OVCAR-4 ovarian) of 1340 nM and a TGI (OVCAR-4 ovarian) of 7480 nM. The GI50 (MCF7 breast) was 30 nM and the TGI (MCF7 breast) was 11700 nM.
